A word on the % Inhibition: it is how much of the control response was suppressed. A high value points to a response far below the control. As usually defined, the IC50 is the concentration at which inhibition is half-maximal. A low value points to higher potency.

The text below walks through data of US7595401B2, “Therapeutic compounds and their use in cancer” (Myriad Pharmaceuticals, Inc., priority 2006, dated 2009).

One test relates to purified human Hsp90. Put plainly: Binding Assay: fluorescence polarization with BODIPY-labeled geldanamycin. The settings on record: 5 μM compound, BODIPY-GM 10 nM, Hsp90 30 nM. The essentials:
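Fluorescence polarization competition with BODIPY-geldanamycin (10 nM final) and human Hsp90 (30 nM final) in HEPES-KOH pH 7.3 buffer with molybdate, NP-40, DTT; 2% DMSO, overnight at room temperature. Read 485/530 nm; percent inhibition from mP normalized to DMSO controls, fluorescent-compound points excluded.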
For orientation: Fluorescence polarisation rises when a labelled molecule tumbles more slowly, as on binding a larger partner.
Turning to `COc1ccc(OC)c(Sc2nc3c(N)ncn(Cc4ccc(F)cc4)c-3n2)c1` [Example 83, 8-(2,5-Dimethoxy-phenylsulfanyl)-3-(4-fluoro-benzyl)-3H-purin-6-ylamine], the “% Inhibition at 5 μM Compound Concentration” value (“% Inhibition” below) is 0%.

With `Nc1ncn(CCc2ccccc2Cl)c2nc(Sc3ccc4c(c3)OC(F)(F)O4)nc1-2` [Example 295, 3-[2-(2-Chlorophenyl)ethyl]-8-[(2,2-difluoro-1,3-benzodioxol-5-yl)thio]-3H-purin-6-amine], the “% Inhibition” value was 0.0%.

As to `CC(C)(C)C(=O)N1CCCC(CCn2cnc(N)c3nc(Sc4cc5c(cc4Br)OCO5)nc2-3)C1` (stereo not drawn) [Example 450, 8-[(6-Bromo-1,3-benzodioxol-5-yl)thio]-3-{2-[1-(2,2-dimethylpropanoyl)piperidin-3-yl]ethyl}-3H-purin-6-amine], the “% Inhibition” value is recorded as 57%.

In the case of `COc1cc(CCn2cnc(N)c3nc(Sc4cc5c(cc4Br)OCO5)nc2-3)cc(OC)c1OC` [Example 92, 8-(6-bromo-benzo[1,3]dioxol-5-ylsulfanyl)-3-[2-(3,4,5-trimethoxy-phenyl)-ethyl]-3H-purin-6-ylamine], the “% Inhibition” value is 0%.

On to `Nc1ncn(CCC2CCNCC2)c2nc(Sc3cc4c(cc3Br)OCO4)nc1-2` [Example 468, 8-[(6-Bromo-1,3-benzodioxol-5-yl)thio]-3-(2-piperidin-4-ylethyl)-3 H-purin-6-amine], for which the “% Inhibition” value worked out at 9%.

For the compound `Cc1ncsc1CCn1cnc(N)c2nc(Sc3cc4c(cc3Br)OCO4)nc1-2` [Example 331, 8-[(6-Bromo-1,3-benzodioxol-5-yl)thio]-3-[2-(4-methyl-1,3-thiazol-5-yl)ethyl]-3H-purin-6-amine], the “% Inhibition” value was found to be 25.0%.

Regarding `CC(C)[C@@H]1C[C@H](CCn2cnc(N)c3nc(Sc4cc5c(cc4Br)OCO5)nc2-3)CCN1C(=O)OC(C)(C)C` (relative stereo) [Example 430, tert-Butyl cis-4-(2-{6-amino-8-[(6-bromo-1,3-benzodioxol-5-yl)thio]-3H-purin-3-yl}ethyl)-2-isopropylpiperidine-1-carboxylate], the “% Inhibition” value was found to be 15%.

With `CCNC(=O)N1CCCC(CCn2cnc(N)c3nc(Sc4cc5c(cc4Br)OCO5)nc2-3)C1` (stereo not drawn) [Example 440, 3-(2-{6-Amino-8-[(6-bromo-1,3-benzodioxol-5-yl)thio]-3H-purin-3-yl}ethyl)-N-ethylpiperidine-1-carboxamide], the “% Inhibition” value is on record as 60%.

Turning to `COc1ccc(C)cc1Sc1nc2c(N)ncn(CCc3ccccc3)c-2n1` [Example 315, 8-[(2-Methoxy-5-methylphenyl)thio]-3-(2-phenylethyl)-3H-purin-6-amine], the “% Inhibition” value was 21.0%.

On to `CC(C)(C)OC(=O)N1CC(CCn2cnc(N)c3nc(Sc4cc5c(cc4Br)OCO5)nc2-3)C1` [Example 459, tert-Butyl 3-(2-{6-amino-8-[(6-bromo-1,3-benzodioxol-5-yl)thio]-3H-purin-3-yl}ethyl)azetidine-1-carboxylate], for which the “% Inhibition” value amounted to 18%.

On to `Nc1ncn(CCC2CCN(C=O)CC2)c2nc(Sc3ncccc3Br)nc1-2` [Example 551, 4-(2-{6-Amino-8-[(3-bromopyridin-2-yl)thio]-3 H-purin-3-yl}ethyl)piperidine-1-carbaldehyde], for which the “% Inhibition” value came out at 0.00%.

With `Nc1ncn(CCC2=CCN(Cc3ccccc3)CC2)c2nc(Sc3cc4c(cc3Br)OCO4)nc1-2` [Example 425, 3-[2-(1-Benzyl-1,2,3,6-tetrahydropyridin-4-yl)ethyl]-8-[(6-bromo-1,3-benzodioxol-5-yl)thio]-3H-purin-6-amine], the “% Inhibition” value is 6%.

In the case of `Nc1ncn(CC(c2ccccc2)C2CCCCC2)c2nc(Sc3cc4c(cc3Br)OCO4)nc1-2` (stereo not drawn) [Example 227, 8-[(6-Bromo-1,3-benzodioxol-5-yl)thio]-3-(2-cyclohexyl-2-phenylethyl)-3H-purin-6-amine], the “% Inhibition” value is 0%.

Staying with this test, now noted: BODIPY-GM 10 nM, Hsp90 30 nM.
`COc1cc(Sc2nc3c(N)nc(F)nc3n2CCc2c(Cl)cccc2Cl)c(Cl)c(OC)c1OC` [Example 239, 8-[(2-Chloro-3,4,5-trimethoxyphenyl)thio]-9-[2-(2,6-dichlorophenyl)ethyl]-2-fluoro-9H-purin-6-amine] came in with an IC50 greater than 25000 nM.

`CC(C)CN1CCCCC1CCn1c(Sc2cc3c(cc2Br)OCO3)nc2c(N)ncnc21` (stereo not drawn) [Example 447, 8-[(6-Bromo-1,3-benzodioxol-5-yl)thio]-9-[2-(1-isobutylpiperidin-2-yl)ethyl]-9H-purin-6-amine]: the IC50 stood at 210 nM.

The compound `Nc1ncnc2c1nc(Sc1cc3c(cc1Br)OCO3)n2CC1(c2ccc(Cl)cc2)CCC1` [Example 95, 8-(6-Bromo-benzo[1,3]dioxol-5-ylsulfanyl)-9-[1-(4-chloro-phenyl)-cyclobutylmethyl]-9H-purin-6-ylamine] showed an IC50 greater than 3000 nM.

`Cn1nnnc1N1CCC(CCn2c(Sc3cc4c(cc3Br)OCO4)nc3c(N)ncnc32)CC1` [Example 609, 8-[(6-Bromo-1,3-benzodioxol-5-yl)thio]-9-{2-[1-(1-methyl-1 H-tetrazol-5-yl)piperidin-4-yl]ethyl}-9 H-purin-6-amine]: the IC50 was found to be 45 nM.

Compound `CCC(Cn1c(Sc2cc(OC)ccc2OC)nc2c(N)ncnc21)c1ccccc1` (stereo not drawn) [Example 285, 8-[(2,5-Dimethoxyphenyl)thio]-9-(2-phenylbutyl)-9H-purin-6-amine] had an IC50 of 1300 nM.

For `C[C@@H](N)C(=O)N1CCCC(CCn2c(Sc3cc4c(cc3Br)OCO4)nc3c(N)ncnc32)C1` (stereo partly drawn) [Example 743, 9-(2-{1-[(2R)-2-Aminopropanoyl]piperidin-3-yl}ethyl)-8-[(6-bromo-1,3-benzodioxol-5-yl)thio]-9H-purin-6-amine], the IC50 was 40 nM. This IC50 lies about 32-fold lower than the previous one.

Turning to `Nc1ncnc2c1nc(Sc1ccc3c(c1)CCC3=O)n2CCC1CCN(C=O)CC1` [Example 555, 4-(2-{6-Amino-8-[(1-oxo-2,3-dihydro-1 H-inden-5-yl)thio]-9 H-purin-9-yl}ethyl)piperidine-1-carbaldehyde], the IC50 turned out to be 700 nM. This IC50 lies about 18-fold higher than the previous one.

The compound `Nc1ncnc2c1nc(Sc1cc3c(cc1Br)OCO3)n2CCC1CCNC1` (stereo not drawn) [Example 476, 8-[(6-Bromo-1,3-benzodioxol-5-yl)thio]-9-(2-pyrrolidin-3-ylethyl)-9 H-purin-6-amine] gave an IC50 of 90 nM.

Take `CC(=O)N1CCC(CCn2c(Sc3nc(C)c(CC(N)=O)s3)nc3c(N)ncnc32)CC1` [Example 660, 2-[2-({9-[2-(1-Acetylpiperidin-4-yl)ethyl]-6-amino-9H-purin-8-yl}thio)-4-methyl-1,3-thiazol-5-yl]acetamide]: the IC50 is greater than 5000 nM.

With `CCOP(=O)(OCC)N1CCC(CCn2c(Sc3cc4c(cc3Br)OCO4)nc3c(N)ncnc32)CC1` [Example 644, Diethyl [4-(2-{6-amino-8-[(6-bromo-1,3-benzodioxol-5-yl)thio]-9 H-purin-9-yl}ethyl)piperidin-1-yl]phosphonate], the IC50 turned out to be 200 nM.

`COc1ccc(OC)c(Sc2nc3c(N)ncnc3n2CCc2ccc(OC)c(OC)c2)c1` [Example 21, 9-[2-(3,4-Dimethoxy-phenyl)-ethyl]-8-(2,5-dimethoxy-phenylsulfanyl)-9H-purin-6-ylamine]: the IC50 was greater than 10000 nM.

As for `CC(C)(C)OC(=O)N1CCC(=CCn2c(Sc3cc4c(cc3Br)OCO4)nc3c(N)ncnc32)CC1` [Example 390, tert-Butyl 4-(2-{6-amino-8-[(6-bromo-1,3-benzodioxol-5-yl)thio]-9H-purin-9-yl}ethylidene)piperidine-1-carboxylate], the IC50 amounted to 310 nM.

`Cc1cc(=O)n(CCn2c(Sc3cc4c(cc3Br)OCO4)nc3c(N)ncnc32)c(=O)[nH]1` [Example 578, 3-(2-{6-amino-8-[(6-bromo-1,3-benzodioxol-5-yl)thio]-9 H-purin-9-yl}ethyl)-6-methylpyrimidine-2,4 (1 H,3 H)-dione]: the IC50 stood at 550 nM.

Turning to `Nc1ncnc2c1nc(Sc1cc3c(cc1Br)OCO3)n2CCc1ccccc1[N+](=O)[O-]` [Example 207, 8-(6-Bromo-benzo[1,3]dioxol-5-ylsulfanyl)-9-[2-(2-nitro-phenyl)-ethyl]-9H-purin-6-ylamine], the IC50 turned out to be 38 nM. Compared with the last compound, the IC50 is about 14-fold lower.

Take `COc1ccc(CCn2c(Sc3cc4c(cc3Br)OCO4)nc3c(N)ncnc32)cc1` [Example 250, 8-[(6-Bromo-1,3-benzodioxol-5-yl)thio]-9-[2-(4-methoxyphenyl)ethyl]-9H-purin-6-amine]: the IC50 was 900 nM.

In turn, `COc1ccc(OC)c(Sc2nc3c(N)ncnc3n2CCc2cccc(F)c2F)c1` [Example 145, 9-[2-(2,3-Difluoro-phenyl)-ethyl]-8-(2,5-dimethoxy-phenylsulfanyl)-9H-purin-6-ylamine] showed an IC50 greater than 3000 nM.

Take `Nc1ncnc2c1nc(Sc1cc3c(cc1Br)OCO3)n2CCC1CCN(CC2CCCCC2)CC1` [Example 581, 8-[(6-Bromo-1,3-benzodioxol-5-yl)thio]-9-{2-[1-(cyclohexylmethyl)piperidin-4-yl]ethyl}-9 H-purin-6-amine]: the IC50 was found to be 240 nM.

`COc1ccc(OC)c(Sc2nc3c(N)ncnc3n2CCC2=CC3CC(C2)C3(C)C)c1` (stereo not drawn) [Example 405, 8-[(2,5-Dimethoxyphenyl)thio]-9-[2-(6,6-dimethylbicyclo[3.1.1]hept-2-en-3-yl)ethyl]-9H-purin-6-amine] yielded an IC50 greater than 8000 nM.

Regarding `Nc1ncnc2c1nc(Sc1cc3c(cc1Br)OCO3)n2CCC1CCCCN1CC1CCCCC1` (stereo not drawn) [Example 588, 8-[(6-Bromo-1,3-benzodioxol-5-yl)thio]-9-{2-[1-(cyclohexylmethyl)piperidin-2-yl]ethyl}-9 H-purin-6-amine], the IC50 was greater than 2000 nM.

`CC(C)(C)C(=O)N1CCN(CCn2c(Sc3cc4c(cc3Br)OCO4)nc3c(N)ncnc32)CC1` [Example 633, 8-[(6-Bromo-1,3-benzodioxol-5-yl)thio]-9-{2-[4-(2,2-dimethylpropanoyl)piperazin-1-yl]ethyl}-9 H-purin-6-amine] had an IC50 of 1500 nM.
